Tests used:
[1] = test system: colon cancer cells (HCT116); test: Cancer cell line growth inhibition (SRB assay); type: cell-based; conditions: Homo sapiens, HCT-116; HCT116 colon cancer cells, SRB assay; read-out: Cancer Cell Line GI50 Range HCT116
[2] = molecular target: T1, human PLK4 (Homo sapiens, UniProt O00444); test: PLK4 inhibition assay (indirect ELISA); type: biochemical; conditions: 15 μM ATP
T1 construct: amino terminal GST fusion of residues 1-391 of human PLK4; made in house; host or cells: E. coli
T1 sequence (O00444 1-391): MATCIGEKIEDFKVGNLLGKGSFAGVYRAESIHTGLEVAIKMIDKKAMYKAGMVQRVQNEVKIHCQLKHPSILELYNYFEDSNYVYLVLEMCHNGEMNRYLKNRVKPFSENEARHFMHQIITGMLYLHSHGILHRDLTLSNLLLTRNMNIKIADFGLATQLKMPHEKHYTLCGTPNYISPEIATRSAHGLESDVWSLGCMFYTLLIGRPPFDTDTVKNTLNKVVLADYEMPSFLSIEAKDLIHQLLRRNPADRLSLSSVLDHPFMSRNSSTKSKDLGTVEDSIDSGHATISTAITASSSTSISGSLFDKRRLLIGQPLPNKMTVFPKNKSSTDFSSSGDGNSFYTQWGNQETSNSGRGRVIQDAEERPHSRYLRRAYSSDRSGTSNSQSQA
Experimental: Active PLK4 was purified from an E. coli expression system as an amino terminal GST fusion of residues 1-391 of human PLK4. The protein was purified from clarified cell extracts after induction at 15° C. overnight using glutathione sepharose, gel permeation chromatography, and ion exchange (Resource Q). The resulting protein was dephosphorylated with lambda phosphatase (NEB cat# P0753), and resolved from the phosphatase using gluthione sepharose. The dephosphorylated GST-PLK4 was stored in aliquots at −80° C. until use.
PLK4 activity was measured using an indirect ELISA detection system. Dephosphorylated GST-PLK4 (4 nM) was incubated in the presence of 15 μM ATP (Sigma cat# A7699), 50 mM HEPES-[…] pH 7.4, 10 mM MgCl2, 0.01% Brij 35 (Sigma cat# 03-3170), in a 96 well microtitre plate pre-coated with MBP (Millipore cat#30-011). The reaction was allowed to proceed for 30 minutes, followed by 5 washes of the plate with Wash Buffer (50 mM TRIS-Cl pH 7.4 and 0.2% Tween 20), and incubation for 30 minutes with a 1:3000 dilution of primary antibody (Cell Signaling cat# 9381). The plate was washed 5 times with Wash Buffer, incubated for 30 minutes in the presence of secondary antibody coupled to horse radish peroxidase (BioRad cat# 1721019, 1:3000 concentration), washed an additional 5 times with Wash Buffer, and incubated in the presence of TMB substrate (Sigma cat# T0440). The colourimetric reaction was allowed to continue for 5 minutes, followed by addition of stop solution (0.5 N sulphuric acid), and quantified by detection at 450 nm with either a monochromatic or filter based plate reader (Molecular Devices M5 or Beckman DTX880, respectively).
Compound inhibition was determined at either a fixed concentration (10 μM) or at a variable inhibitor concentration (typically 50 μM to 0.1 μM in a 10 point dose response titration). Compounds were pre-incubated in the presence of enzyme for 15 minutes prior to addition of ATP and the activity remaining quantified using the above described activity assay. The % Inhibition of a compound was determined using the following formula: % Inhibition=100×(1−(experimental value−background value)/(high activity control−background value)). The IC50 value was determined using a non-linear 4 point logistic curve fit (XLfit4, IDBS) with the formula: (A+(B/(1+((x/C)^D)))), where A=background value, B=range, C=inflection point, D=curve fit parameter.

[3] = test system: ovarian cancer cells (PA-1); test: Cancer cell line growth inhibition (SRB assay); type: cell-based; conditions: PA-1 ovarian cancer cells, SRB assay; read-out: Cancer Cell Line GI50 Range PA-1
[4] = molecular target: T2, human TTK (Homo sapiens, UniProt P33981); test: TTK inhibition assay (indirect ELISA); type: biochemical; conditions: read-out: TTK IC50 Range
T2 construct: amino terminal GST fusion of full length human TTK; purchased Invitrogen
T2 sequence (P33981 1-857): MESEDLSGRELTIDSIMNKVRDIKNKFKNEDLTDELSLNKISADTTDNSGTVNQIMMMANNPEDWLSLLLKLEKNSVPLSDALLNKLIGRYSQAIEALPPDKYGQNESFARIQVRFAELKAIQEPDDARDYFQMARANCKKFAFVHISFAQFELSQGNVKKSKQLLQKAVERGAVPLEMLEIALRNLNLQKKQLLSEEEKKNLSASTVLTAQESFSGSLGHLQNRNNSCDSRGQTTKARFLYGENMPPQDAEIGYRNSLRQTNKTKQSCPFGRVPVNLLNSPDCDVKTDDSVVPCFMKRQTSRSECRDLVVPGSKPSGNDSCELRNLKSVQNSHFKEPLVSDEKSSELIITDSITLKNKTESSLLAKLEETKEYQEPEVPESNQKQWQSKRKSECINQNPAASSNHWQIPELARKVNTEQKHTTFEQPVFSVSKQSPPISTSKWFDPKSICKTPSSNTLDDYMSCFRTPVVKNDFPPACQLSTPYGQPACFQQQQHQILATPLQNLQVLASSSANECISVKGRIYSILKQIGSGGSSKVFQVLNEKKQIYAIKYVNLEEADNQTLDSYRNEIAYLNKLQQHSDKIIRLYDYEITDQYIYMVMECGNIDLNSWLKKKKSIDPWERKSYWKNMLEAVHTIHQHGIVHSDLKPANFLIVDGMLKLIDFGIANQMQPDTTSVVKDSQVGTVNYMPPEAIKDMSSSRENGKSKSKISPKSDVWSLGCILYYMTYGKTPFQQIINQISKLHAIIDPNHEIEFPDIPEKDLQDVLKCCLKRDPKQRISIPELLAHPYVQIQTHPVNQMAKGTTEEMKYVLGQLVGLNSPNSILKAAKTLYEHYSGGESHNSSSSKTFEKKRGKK

SMILES | GI50 [1] [nM] | IC50 [2] [nM] | GI50 [3] [nM] | IC50 [4] [nM]
O=C(Nc1ccc2[nH]nc(-c3ccc(OC4CCN(CCF)CC4)cc3)c2c1)C(c1ccsc1)N1CCCC1 (centres unmarked) [Example A102, N-(3-(4-((1-(2-fluoroethyl)piperidin-4-yl)oxy)phenyl)-1H-indazol-5-yl)-2-(pyrrolidin-1-yl)-2-(thiophen-3-yl)acetamide] | < 100 | < 50 | < 100 | 
CCC(CNC(=O)c1ccc2[nH]nc(-c3ccc(OC4CCN(C)CC4)cc3)c2c1)c1ccccc1 (centres unmarked) [Example A408, 3-(4-((1-methylpiperidin-4-yl)oxy)phenyl)-N-(2-phenylbutyl)-1H-indazole-5-carboxamide] |  | < 50 |  | < 100
CC(C)(C)CC(NC(=O)c1ccc2[nH]nc(-c3ccc(N4CCN(C5COC5)CC4)cc3)c2c1)c1ccccc1F (centres unmarked) [Example A308, N-(1-(2-fluorophenyl)-3,3-dimethylbutyl)-3-(4-(4-(oxetan-3-yl)piperazin-1-yl)phenyl)-1H-indazole-5-carboxamide] |  | < 50 |  | < 100
O=C(Nc1ccc2[nH]nc(-c3ccc4c(c3)OCO4)c2c1)C(c1ccsc1)N1CCCC1 (centres unmarked) [Example A14, N-(3-(benzo[d][1,3]dioxol-5-yl)-1H-indazol-5-yl)-2-(pyrrolidin-1-yl)-2-(thiophen-3-yl)acetamide] | > 500 | < 50 |  | 
CN1CCC(C(NC(=O)c2ccc3[nH]nc(-c4ccc(N5CCOCC5)cc4)c3c2)c2ccccc2)CC1 (centres unmarked) [Example A85, N-((1-methylpiperidin-4-yl)(phenyl)methyl)-3-(4-morpholinophenyl)-1H-indazole-5-carboxamide] | < 100 | < 50 | < 100 | 
COCCN1CCC(Oc2ccc(-c3n[nH]c4ccc(C(=O)NC(c5ccsc5)C5CCCC5)cc34)cc2)CC1 (centres unmarked) [Example A155, N-(cyclopentyl(thiophen-3-yl)methyl)-3-(4-((1-(2-methoxyethyl)piperidin-4-yl)oxy)phenyl)-1H-indazole-5-carboxamide] | 100 to 500 | < 50 | 100 to 500 | 
O=C(Nc1ccc2[nH]nc(-c3ccc4c(c3)OCCO4)c2c1)C(c1ccsc1)N1CCCC1 (centres unmarked) [Example A15, N-(3-(2,3-dihydrobenzo[b][1,4]dioxin-6-yl)-1H-indazol-5-yl)-2-(pyrrolidin-1-yl)-2-(thiophen-3-yl)acetamide] | > 500 | < 50 |  | 
O=C(Nc1ccc2[nH]nc(-c3ccc(N4CCC(CO)CC4)cc3)c2c1)C(c1ccsc1)N1CCCC1 (centres unmarked) [Example A95, N-(3-(4-(4-(hydroxymethyl)piperidin-1-yl)phenyl)-1H-indazol-5-yl)-2-(pyrrolidin-1-yl)-2-(thiophen-3-yl)acetamide] | < 100 | < 50 | < 100 | 

Results, then the compound that gave them:

GI50 [1] [nM] | IC50 [2] [nM] | GI50 [3] [nM] | IC50 [4] [nM] | SMILES
100 to 500 | < 50 | 100 to 500 |  | C[C@@H]1CCCN1[C@@H](C(=O)Nc1ccc2[nH]nc(-c3ccc(N4CCOCC4)cc3)c2c1)c1ccsc1 [Example A97, (R)-2-((R)-2-methylpyrrolidin-1-yl)-N-(3-(4-morpholinophenyl)-1H-indazol-5-yl)-2-(thiophen-3-yl)acetamide]
< 100 | < 50 |  |  | C[C@@H]1CN(c2ccc(-c3n[nH]c4ccc(NC(=O)C(c5ccsc5)N5CCCC5)cc34)cc2)C[C@H](C)O1 (stereo partly drawn) [Example A50, N-(3-(4-((2S,6R)-2,6-dimethylmorpholino)phenyl)-1H-indazol-5-yl)-2-(pyrrolidin-1-yl)-2-(thiophen-3-yl)acetamide]
100 to 500 | < 50 | 100 to 500 |  | CN1CCC(Oc2ccc(-c3n[nH]c4ccc(NC(=O)C(c5ccccc5)C5CCCC5)cc34)cc2)CC1 (centres unmarked) [Example A148, 2-cyclopentyl-N-(3-(4-((1-methylpiperidin-4-yl)oxy)phenyl)-1H-indazol-5-yl)-2-phenylacetamide]
< 100 | < 50 |  |  | O=C(Nc1ccc2[nH]nc(-c3ccc(OCCCN4CCOCC4)cc3)c2c1)C(c1ccsc1)N1CCCC1 (centres unmarked) [Example A45, N-(3-(4-(3-morpholinopropoxy)phenyl)-1H-indazol-5-yl)-2-(pyrrolidin-1-yl)-2-(thiophen-3-yl)acetamide]
100 to 500 | < 50 | 100 to 500 |  | CN1CCC(Oc2ccc(-c3n[nH]c4ccc(NC(=O)C(c5ccccc5F)C5CCCC5)cc34)cc2)CC1 (centres unmarked) [Example A162, 2-cyclopentyl-2-(2-fluorophenyl)-N-(3-(4-((1-methylpiperidin-4-yl)oxy)phenyl)-1H-indazol-5-yl)acetamide]
< 100 | < 50 | < 100 |  | O=C(NC(c1ccsc1)C1CC1)c1ccc2[nH]nc(-c3ccc(OC4CCN(CCO)CC4)cc3)c2c1 (centres unmarked) [Example A117, N-(cyclopropyl(thiophen-3-yl)methyl)-3-(4-((1-(2-hydroxyethyl)piperidin-4-yl)oxy)phenyl)-1H-indazole-5-carboxamide]
< 100 | < 50 | 100 to 500 |  | Cc1ccccc1CC(=O)Nc1ccc2[nH]nc(-c3ccc(OC4CCN(C)CC4)cc3)c2c1 [Example A92, N-(3-(4-(1-Methylpiperidin-4-yloxy)phenyl)-1H-indazol-5-yl)-2-o-tolylacetamide]
100 to 500 | < 50 | > 500 |  | COc1ccccc1C(C(=O)Nc1ccc2[nH]nc(-c3ccc(OC4CCN(C)CC4)cc3)c2c1)C1CCCC1 (centres unmarked) [Example A156, 2-cyclopentyl-2-(2-methoxyphenyl)-N-(3-(4-((1-methylpiperidin-4-yl)oxy)phenyl)-1H-indazol-5-yl)acetamide]
100 to 500 | < 50 | 100 to 500 |  | COCCN1CCC(Oc2ccc(-c3n[nH]c4ccc(C(=O)N[C@H](C)c5ccccc5F)cc34)cc2)CC1 [Example A129, (R)-N-(1-(2-fluorophenyl)ethyl)-3-(4-((1-(2-methoxyethyl)piperidin-4-yl)oxy)phenyl)-1H-indazole-5-carboxamide]
100 to 500 | < 50 |  |  | O=C(Nc1ccc2[nH]nc(-c3ccc(N4CCOCC4)c(F)c3)c2c1)C(c1ccsc1)N1CCCC1 (centres unmarked) [Example A60, N-(3-(3-fluoro-4-morpholinophenyl)-1H-indazol-5-yl)-2-(pyrrolidin-1-yl)-2-(thiophen-3-yl)acetamide]

From patent US9580390B2, “Indazole compounds as kinase inhibitors and method of treating cancer with same” (University Health Network, priority 2011, dated 2017)
